This is an account of results in ChEMBL document CHEMBL1909046, “DrugMatrix in vitro pharmacology data”.

In assay [1] the target is 5-hydroxytryptamine receptor 4 (Cavia porcellus, UniProt O70528). The class given is cell membranes, Dunkin-Hartley, Striatum, Membrane. Further: in other assays of this panel Not Active means under 50% inhibition at 10 µM.
The nature of assay [2]: DRUGMATRIX: GABAA, Muscimol, Central radioligand binding (ligand: [3H] Muscimol). It is filed as cell membranes, Rattus norvegicus, Wistar, Brain, Membrane. The conditions noted are these: Not Active = under 50% inhibition at 10 µM.
The nature of assay [3]: DRUGMATRIX: Glutamate, NMDA, Phencyclidine radioligand binding (ligand: [3H] TCP). The class given is cell membranes, Rattus norvegicus, Wistar, Cerebral cortex, Membrane. To be noted: Not Active = under 50% inhibition at 10 µM.
For a further assay, the target named is Histamine H2 receptor (Homo sapiens, UniProt P25021). The class given is cell membranes, CHO-K1, Membrane. Further: in other assays of this panel Not Active means under 50% inhibition at 10 µM.
The target in assay [4] is T1, Cysteinyl leukotriene receptor 1 (Homo sapiens, UniProt Q9Y271). Further: in other assays of this panel Not Active means under 50% inhibition at 10 µM.
T1 sequence (Q9Y271 whole entry): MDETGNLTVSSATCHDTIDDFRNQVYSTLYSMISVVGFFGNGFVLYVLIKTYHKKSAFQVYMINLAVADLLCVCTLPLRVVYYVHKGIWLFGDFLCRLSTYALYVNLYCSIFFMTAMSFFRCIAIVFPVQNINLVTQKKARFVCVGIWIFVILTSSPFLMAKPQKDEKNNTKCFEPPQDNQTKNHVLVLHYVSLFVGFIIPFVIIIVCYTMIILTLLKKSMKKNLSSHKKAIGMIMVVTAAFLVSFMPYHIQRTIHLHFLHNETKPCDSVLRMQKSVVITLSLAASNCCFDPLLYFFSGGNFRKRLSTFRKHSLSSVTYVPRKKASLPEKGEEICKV
It is filed as cell membranes, CHO-K1, Membrane. The conditions noted are these: cho-k1.

Assay [5] can be described thus: DRUGMATRIX: Phosphodiesterase PDE3 enzyme inhibition (substrate: [3H]cAMP + cAMP). The class given is tissue-based, Homo sapiens. The conditions noted are these: platelet, Not Active = under 50% inhibition at 10 µM.
In assay [6] the target is T2, Angiotensin-converting enzyme (Oryctolagus cuniculus, UniProt P12822).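 Further: enzymatic inhibition of angiotensin-converting enzyme measured with FAPGG as the substrate; in other assays of this panel Not Active means under 50% inhibition at 10 µM.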
T2 sequence (P12822 whole entry): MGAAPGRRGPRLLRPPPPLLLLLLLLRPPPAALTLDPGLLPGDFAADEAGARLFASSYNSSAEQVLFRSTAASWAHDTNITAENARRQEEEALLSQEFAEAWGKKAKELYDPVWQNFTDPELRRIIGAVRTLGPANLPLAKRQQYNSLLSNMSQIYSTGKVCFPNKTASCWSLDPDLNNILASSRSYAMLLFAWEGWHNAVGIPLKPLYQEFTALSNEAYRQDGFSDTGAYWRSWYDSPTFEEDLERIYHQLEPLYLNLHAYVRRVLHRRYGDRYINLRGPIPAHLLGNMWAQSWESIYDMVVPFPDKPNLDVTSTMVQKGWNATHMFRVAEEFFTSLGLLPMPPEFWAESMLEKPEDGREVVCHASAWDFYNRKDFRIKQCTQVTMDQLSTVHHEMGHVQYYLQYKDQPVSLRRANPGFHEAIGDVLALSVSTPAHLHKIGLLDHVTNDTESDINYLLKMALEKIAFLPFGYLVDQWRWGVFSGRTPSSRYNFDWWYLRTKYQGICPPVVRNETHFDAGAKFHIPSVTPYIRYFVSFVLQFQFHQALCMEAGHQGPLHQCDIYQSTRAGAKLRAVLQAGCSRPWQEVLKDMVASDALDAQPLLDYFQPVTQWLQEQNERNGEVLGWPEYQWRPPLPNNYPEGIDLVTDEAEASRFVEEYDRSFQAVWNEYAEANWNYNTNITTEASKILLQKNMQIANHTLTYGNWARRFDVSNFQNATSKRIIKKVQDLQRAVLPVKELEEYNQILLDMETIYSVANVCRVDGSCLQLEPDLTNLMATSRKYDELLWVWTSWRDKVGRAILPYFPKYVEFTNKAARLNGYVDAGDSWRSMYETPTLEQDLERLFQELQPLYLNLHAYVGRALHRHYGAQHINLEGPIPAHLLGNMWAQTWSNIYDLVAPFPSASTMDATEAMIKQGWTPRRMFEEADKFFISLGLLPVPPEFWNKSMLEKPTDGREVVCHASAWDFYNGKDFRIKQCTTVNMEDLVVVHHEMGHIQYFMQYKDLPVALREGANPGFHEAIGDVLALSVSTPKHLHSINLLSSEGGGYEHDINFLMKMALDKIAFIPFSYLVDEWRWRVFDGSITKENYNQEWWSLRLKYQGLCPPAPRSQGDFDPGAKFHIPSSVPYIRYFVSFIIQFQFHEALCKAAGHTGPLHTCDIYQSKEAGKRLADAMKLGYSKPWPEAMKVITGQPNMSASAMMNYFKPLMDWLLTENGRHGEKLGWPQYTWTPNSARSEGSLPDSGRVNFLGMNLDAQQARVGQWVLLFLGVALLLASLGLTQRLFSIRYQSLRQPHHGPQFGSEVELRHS
Briefly: biochemical. It is filed as tissue-based, Lung.

5-hydroxytryptamine receptor 4, sequence (O70528 whole entry): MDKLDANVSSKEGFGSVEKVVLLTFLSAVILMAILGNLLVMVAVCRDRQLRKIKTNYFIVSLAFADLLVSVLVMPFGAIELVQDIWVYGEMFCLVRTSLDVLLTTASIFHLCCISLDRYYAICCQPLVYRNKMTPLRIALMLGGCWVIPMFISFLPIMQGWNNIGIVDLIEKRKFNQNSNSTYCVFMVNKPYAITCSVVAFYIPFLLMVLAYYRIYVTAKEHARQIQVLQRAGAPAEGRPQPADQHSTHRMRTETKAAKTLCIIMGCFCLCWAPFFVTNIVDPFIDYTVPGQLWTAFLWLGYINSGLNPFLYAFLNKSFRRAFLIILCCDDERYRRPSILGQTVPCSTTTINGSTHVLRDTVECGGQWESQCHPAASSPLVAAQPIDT
Histamine H2 receptor, sequence (P25021 whole entry): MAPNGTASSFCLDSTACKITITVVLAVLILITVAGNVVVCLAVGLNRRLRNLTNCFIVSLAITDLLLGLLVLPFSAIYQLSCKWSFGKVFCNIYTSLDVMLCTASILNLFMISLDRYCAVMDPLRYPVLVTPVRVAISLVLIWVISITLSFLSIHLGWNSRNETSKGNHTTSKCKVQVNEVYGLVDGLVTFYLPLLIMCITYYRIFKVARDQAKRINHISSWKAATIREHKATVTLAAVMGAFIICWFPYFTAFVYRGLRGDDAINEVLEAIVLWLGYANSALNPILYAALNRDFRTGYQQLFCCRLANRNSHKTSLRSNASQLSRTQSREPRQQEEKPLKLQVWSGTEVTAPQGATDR

In the case of `CO[C@@]12[C@H](COC(N)=O)C3=C(C(=O)C(C)=C(N)C3=O)N1C[C@@H]1N[C@@H]12` [MITOMYCIN], the IC50 result (in assay [1]; in assay [2]; in assay [3]; against Histamine H2 receptor (cho-k1); in assay [4]; in assay [5]) was “Not Active” in each case. Also, the IC50 entry in assay [6] was “Not Active”. Moreover, the Ki entry in assay [2], in assay [3] and in assay [5] was “Not Active” throughout.
Regarding `Cc1ccc(S(=O)(=O)NC(=O)NN2CCCCCC2)cc1` [TOLAZAMIDE], the IC50 result (in assay [1]; in assay [2]; in assay [3]; on Histamine H2 receptor (cho-k1); in assay [4]; in assay [5]) was “Not Active” each time. Moreover, the IC50 entry in assay [6] is on record as “Not Active”. The Ki result in assay [2], in assay [3] and in assay [5] was “Not Active” each time.
For the compound `CCC(C)(C)C(=O)O[C@H]1C[C@@H](C)C=C2C=C[C@H](C)[C@H](CC[C@@H]3C[C@@H](O)CC(=O)O3)[C@H]21` [SIMVASTATIN], the IC50 entry (in assay [1]; in assay [2]; in assay [3]; on Histamine H2 receptor (cho-k1); in assay [4]; in assay [5]) was “Not Active” throughout. In addition, in assay [6], the IC50 result is on record as “Not Active”. Also, the Ki result in assay [2], in assay [3] and in assay [5] was “Not Active” throughout.
Regarding LEAD(IV) ACETATE, the IC50 entry (in assay [1]; in assay [2]; in assay [3]; against Histamine H2 receptor (cho-k1); in assay [4]; in assay [5]) was “Not Active” throughout. Besides, in assay [6], the IC50 result is “Not Active”. The Ki entry (in assay [1]; in assay [2]; in assay [3]; on Histamine H2 receptor (cho-k1); in assay [4]; in assay [5]) was “Not Active” each time. The inhibitory constant (Ki) entry in assay [6] is “Not Active”.
For the compound `CCN1CCCC1CNC(=O)c1cc(S(N)(=O)=O)ccc1OC` (stereo not given) [SULPIRIDE], the IC50 result (in assay [1]; in assay [2]; in assay [3]; against Histamine H2 receptor (cho-k1); in assay [4]; in assay [5]) was “Not Active” in each case. Besides, in assay [6], the IC50 entry was “Not Active”. Besides, the Ki result in assay [2], in assay [3] and in assay [5] was “Not Active” each time.
Take `CC[C@H](C)C(=O)O[C@H]1CCC=C2C=C[C@H](C)[C@H](CC[C@@H]3C[C@@H](O)CC(=O)O3)[C@H]21` [MEVASTATIN]: the IC50 entry (in assay [1]; in assay [2]; in assay [3]; against Histamine H2 receptor (cho-k1); in assay [4]; in assay [5]) was “Not Active” throughout. Moreover, the IC50 entry in assay [6] is on record as “Not Active”. In addition, the Ki entry in assay [2], in assay [3] and in assay [5] was “Not Active” in each case.
Consider `CN1C[C@H](CNC(=O)OCc2ccccc2)C[C@@H]2c3cccc4c3c(cn4C)C[C@H]21` [METERGOLINE], for which the IC50 in assay [1] (read-out: IC50) is 1640 nM; in assay [2], “Not Active”; in assay [3] it was “Not Active”; at Histamine H2 receptor (read-out: IC50), 975 nM; in assay [4] it was “Not Active”; in assay [5], “Not Active”. Besides, the IC50 entry in assay [6] is listed as “Not Active”. The Ki in assay [1] (read-out: Ki) was 274 nM; in assay [2], “Not Active”; in assay [3], “Not Active”; at Histamine H2 receptor (read-out: Ki) it was 959 nM; in assay [5], “Not Active”.
For the compound `Oc1ccc(/C=C/c2cc(O)cc(O)c2)cc1` [RESVERATROL], the IC50 entry (in assay [1]; in assay [2]; in assay [3]; against Histamine H2 receptor (cho-k1); in assay [4]; in assay [5]) was “Not Active” each time. For the same compound, in assay [6], the IC50 entry is reported as “Not Active”. The Ki result in assay [2], in assay [3] and in assay [5] was “Not Active” in each case.
In the case of `CC1=C(/C=C/C(C)=C/C=C/C(C)=C/C(=O)O)C(C)(C)CCC1` [TRETINOIN], the IC50 entry (in assay [1]; in assay [2]; in assay [3]; against Histamine H2 receptor (cho-k1); in assay [4]; in assay [5]) was “Not Active” each time. For the same compound, the IC50 entry in assay [6] is recorded as “Not Active”. The Ki result in assay [2], in assay [3] and in assay [5] was “Not Active” in each case.
Regarding `CC[C@@]1(O)C(=O)OCc2c1cc1n(c2=O)Cc2cc3c(CN(C)C)c(O)ccc3nc2-1` [TOPOTECAN], the IC50 entry (in assay [1]; in assay [2]; in assay [3]; on Histamine H2 receptor (cho-k1); in assay [4]; in assay [5]) was “Not Active” in each case. Further, in assay [6], the IC50 result is “Not Active”. Moreover, the Ki entry in assay [2], in assay [3] and in assay [5] was “Not Active” each time.
Consider `O=C(OC[C@H]1O[C@@H](OC(=O)c2cc(O)c(O)c(OC(=O)c3cc(O)c(O)c(O)c3)c2)[C@H](OC(=O)c2cc(O)c(O)c(OC(=O)c3cc(O)c(O)c(O)c3)c2)[C@@H](OC(=O)c2cc(O)c(O)c(OC(=O)c3cc(O)c(O)c(O)c3)c2)[C@@H]1OC(=O)c1cc(O)c(O)c(OC(=O)c2cc(O)c(O)c(O)c2)c1)c1cc(O)c(O)c(OC(=O)c2cc(O)c(O)c(O)c2)c1` [TANNIC ACID], for which the IC50 entry in assay [1] is “Not Active”; in assay [2], “Not Active”; in assay [3], “Not Active”; against Histamine H2 receptor (cho-k1), “Not Active”; in assay [4], “Not Active”; in assay [5] (read-out: IC50) it was 714 nM. Further, in assay [6], the half-inhibitory concentration (IC50) result is “Not Active”. Further, the Ki entry in assay [2] and in assay [3] was “Not Active” each time.
Consider `CC(Cl)(Cl)Cl` [TRICHLOROETHANE], for which the IC50 entry (in assay [1]; in assay [2]; in assay [3]; on Histamine H2 receptor (cho-k1); in assay [4]; in assay [5]) was “Not Active” in each case. The IC50 entry in assay [6] is reported as “Not Active”. In addition, the Ki result in assay [2], in assay [3] and in assay [5] was “Not Active” throughout.
Regarding `C=CCc1ccc2c(c1)OCO2` [SAFROLE], the IC50 entry (in assay [1]; in assay [2]; in assay [3]; at Histamine H2 receptor (cho-k1); in assay [4]; in assay [5]) was “Not Active” in each case. The IC50 entry in assay [6] is on record as “Not Active”. For the same compound, the Ki result in assay [2], in assay [3] and in assay [5] was “Not Active” each time.
As for `O=C1CC[C@@]2(O)[C@H]3Cc4ccc(O)c5c4[C@@]2(CCN3CC2CC2)[C@H]1O5` [NALTREXONE], the 50% inhibitory concentration (IC50) entry (in assay [1]; in assay [2]; in assay [3]; at Histamine H2 receptor (cho-k1); in assay [4]; in assay [5]) was “Not Active” each time. Further, the IC50 entry in assay [6] is reported as “Not Active”. The inhibitory constant (Ki) result in assay [2], in assay [3] and in assay [5] was “Not Active” in each case.
